Data as given in patent US7704701B2, “Diagnosis of prostate cancer with SPAS-1 cancer antigen” (The Regents of the University of California, priority 2000, dated 2010).

How the values were obtained:
CD8+ T cells [1] = assay: IFN-γ production (ELISA) by in vitro primed T cell cultures in response to peptide pulsed onto A221 cells; assay type: cell-based, human; conditions: HLA-A2+ healthy donors
From the text: FIG. 21: Strategy for the generation of human cytotoxic T lymphocytes (CTLs) specific for candidate human SPAS-1 peptides: In order to determine whether CD8+ T cells specific for human SPAS-1 peptides are present in the periphery of healthy individuals we used an in vitro priming strategy. Briefly, immature Myeloid Dendritic Cells (mDCs) were generated from culturing monocytes isolated from Peripheral Blood Mononuclear Cells (PBMCs) of a healthy HLA-A2+ donor for 5 days in GM-CSF and IL-4.
Following another in vitro restimulation, T cell cultures were assessed for their capacity to produce IFN-γ in response to the corresponding peptide, pulsed onto the HLA-A2 expressing cell line A221. IFN-γ was assessed by ELISA on the cell supernatants in triplicate wells.
In order to determine whether CD8+ T cells specific for human SPAS-1 peptides are present in the periphery of healthy individuals we used an in vitro priming strategy. Briefly, immature Myeloid Dendritic Cells (mDCs) were generated from culturing monocytes isolated from Peripheral Blood Mononuclear Cells (PBMCs) of a healthy HLA-A2+ donor for 5 days in GM-CSF and IL-4.

CD8+ T cells [2] = assay: IFN-γ production (ELISA) by FL-9-primed CD8+ T cells in response to titrated peptide pulsed onto THP-1 cells; assay type: cell-based, human; conditions: fourteen days after first stimulation
Protocol: FIG. 24. […] A) Monocyte-derived DCs from HLA-A2+ healthy donors were pulsed with HuSPAS-1 peptide 4 (FL-9) and then incubated with autologous PBMC. Following another in vitro restimulation, T cell cultures were then assessed for their capacity to produce IFN-γ in response to titrated doses of peptide 4 (FL-9), pulsed onto the HLA-A2 expressing cell line THP-1. IFN-γ was assessed by ELISA on the cell supernatants in triplicate wells. […] (100,000 CD8+ T cells/well and 50,000 THP-1 cells/well). […] Responsiveness of the FL-9-reactive CD8+ T cell line was assessed by co-culturing 100,000 CD8+ T cells with titrated numbers of infected THP-1 cells.
Monocyte-derived DCs from HLA-A2+ healthy donors were pulsed with HuSPAS-1 peptide 4 (FL-9) and then incubated with autologous PBMC. Following another in vitro restimulation, T cell cultures were then assessed for their capacity to produce IFN-γ in response to titrated doses of peptide 4 (FL-9), pulsed onto the HLA-A2 expressing cell line THP-1. IFN-γ was assessed by ELISA on the cell supernatants in triplicate wells. […] Responsiveness of the FL-9-reactive CD8+ T cell line was assessed by co-culturing 100,000 CD8+ T cells with titrated numbers of infected THP-1 cells.

Sequence	immunogenicity: IFN-γ production in response to the corresponding peptide (CD8+ T cells [1])	IFN-γ production in response to increasing doses of peptide (CD8+ T cells [2])
FLTPLRNFL (H. sapiens) [P4]	Immunogenic	specifically produced IFN-γ
LLADELITV (H. sapiens) [P1]		not
